Measurements published in patent publication US10159265B2, “Feed composition for reducing ruminant methanogenesis” (priority 2012, dated 2018).
Marks after values point to notes of the source that are not given here.

Experiments:
Streptococcus bovis = experiment: qPCR relative quantification of Streptococcus bovis; assay type: cell-based; conditions: 12 hours of incubation
[1] = test system: "in vitro" ruminal fluid culture; experiment: Lactate concentration in "in vitro" ruminal fluid culture; assay type: cell-based, calves; conditions: 12 hours of incubation
[2] = test system: "in vitro" rumen fluid culture; experiment: Biogas production in "in vitro" rumen fluid culture (pressure meter); assay type: cell-based, calves; set-up: Average biogas production / Cumulative biogas production / Biogas production: unit not given here; conditions: Exp 1; for Average biogas production: average over doses and incubation times
Selenomonas ruminantium = experiment: qPCR relative quantification of Selenomonas ruminantium; assay type: cell-based; conditions: 12 hours of incubation
Megasphaera elsdenii = experiment: qPCR relative quantification of Megasphaera elsdenii; assay type: cell-based; conditions: 12 hours of incubation
ruminal bacteria = experiment: Bacterial DNA concentration by qPCR; assay type: cell-based, calves; conditions: 12 hours of incubation
[3] = test system: "in vitro" ruminal fluid cultures; experiment: Volatile fatty acid concentration and molar proportions in "in vitro" ruminal fluid cultures; assay type: cell-based, calves
[4] = test system: "in vitro" ruminal fluid cultures; experiment: Ammonia (N-NH3) concentration in "in vitro" ruminal fluid cultures; assay type: cell-based, calves
[5] = test system: methanogenic (archea) populations; experiment: Methane production in "in vitro" rumen fluid culture; assay type: cell-based, calves; set-up: Average methane production / Accumulated methane production / Methane production / Cumulative methane production: unit not given here; conditions: Exp 1
Method in brief: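 Rumen fluid from cannulated calves on a 90:10 concentrate ration incubated anaerobically at 39° C with flavonoids, 600 mg concentrate and 60 mg barley straw substrate in 10 ml rumen fluid plus 40 ml incubation medium. Gas pressure read at 2–48 h; triplicates in two batches, with methane share of total biogas assessed.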

[6] = test system: "in vitro" ruminal fluid cultures; experiment: Ammonia (N-NH3) concentration in "in vitro" ruminal fluid cultures; assay type: cell-based, calves; conditions: 72 h

C[C@@H]1O[C@@H](O[C@H]2[C@H](Oc3cc(O)c4c(c3)O[C@H](c3ccc(O)cc3)CC4=O)O[C@H](CO)[C@@H](O)[C@@H]2O)[C@H](O)[C@H](O)[C@H]1O [Naringin, naringin]
Relative Quantification 2^(ΔΔCt) S. bovis (Streptococcus bovis): 0.48 | Lactate [1]: 77.8 mg/L | Cumulative biogas production ([2]; 12 h incubation): 193.90 | Cumulative biogas production ([2]; 24 h incubation): 236.91 | Cumulative biogas production ([2]; 48 h incubation): 270.98 | Cumulative biogas production ([2]; 72 h incubation): 290.91 | Average biogas production [2]: 248.17^bc | Average biogas production ([2]; listed as naringin): did not change | Biogas production ([2]; dose 1, 0.2 g/kg DM): 251.15 | Biogas production ([2]; dose 2, 0.5 g/kg DM): 245.19 | Relative Quantification 2^(ΔΔCt) S. ruminantium (Selenomonas ruminantium): 0.74 | Relative Quantification 2^(ΔΔCt) M. elsdenii (Megasphaera elsdenii): 1.26 ^c | Bacteria DNA (ruminal bacteria): 22.15 ^ab μg/ml | % Acetate, molar ratio ([3]; 0 h): 62.51 mol/100 mol | % Butyrate, molar ratio ([3]; 0 h): 9.07 mol/100 mol | % Propionate, molar ratio ([3]; 0 h): 20.03 mol/100 mol | A/P rate (acetate/propionate) ([3]; 0 h): 3.12 | VFA concentration ([3]; 0 h (initial constant value)): 13.78 mmol/L | % Acetate, molar ratio ([3]; 12 h): 53.70 mol/100 mol | % Butyrate, molar ratio ([3]; 12 h): 10.47 mol/100 mol | % Propionate, molar ratio ([3]; 12 h): 30.00 mol/100 mol | A/P rate (acetate/propionate) ([3]; 12 h): 1.79 | VFA concentration ([3]; 12 h): 35.23 mmol/L | % Acetate, molar ratio ([3]; 72 h): 55.34 mol/100 mol | % Butyrate, molar ratio ([3]; 72 h): 10.33 mol/100 mol | % Propionate, molar ratio ([3]; 72 h): 26.75 mol/100 mol | A/P rate (acetate/propionate) ([3]; 72 h): 2.07 | VFA concentration ([3]; 72 h): 51.03 mmol/L | % Acetate, molar ratio, average (μ) ([3]; average over incubation times): 57.18 mol/100 mol | % Butyrate, molar ratio, average (μ) ([3]; average over incubation times): 9.96 ^ab mol/100 mol | % Propionate, molar ratio, average (M) ([3]; average over incubation times): 25.59 ^b mol/100 mol | VFA concentration, average (μ) ([3]; average over incubation times): 33.35 mmol/L | % Propionate, molar ratio, average (M) ([3]; average over incubation times, listed as naringin): improved | N-NH3 concentration ([4]; 0 h (initial constant value)): 149.99 mg/L | N-NH3 concentration ([4]; 12 h): 172.47 mg/L | N-NH3 concentration, average (M) ([4]; average over incubation times): 219.57 mg/L | Accumulated methane production ([5]; 12 h): 23.38 | Proportion of methane in the produced biogas ([5]; 12 h): 12.04 | Accumulated methane production ([5]; 24 h): 29.46 | Proportion of methane in the produced biogas ([5]; 24 h): 14.28 | Accumulated methane production ([5]; 48 h): 34.93 | Proportion of methane in the produced biogas ([5]; 48 h): 16.14 | Accumulated methane production ([5]; 72 h): 38.24 | Proportion of methane in the produced biogas ([5]; 72 h): 16.97 | Proportion of methane in the produced biogas ([5]; average over doses and incubation times): 14.86^b | Average methane production ([5]; average over doses and incubation times, listed as Naringina): 31.50^b | Average methane production ([5]; average over doses and incubation times, listed as naringin): not modified | Methane production ([5]; dose 1, 0.2 g/kg DM): 32.28 | Proportion of methane in the produced biogas ([5]; dose 1, 0.2 g/kg DM): 14.87 | Methane production ([5]; dose 2, 0.5 g/kg DM): 30.73 | Proportion of methane in the produced biogas ([5]; dose 2, 0.5 g/kg DM): 14.85 | N-NH3 concentration [6]: 336.25 mg/L
